Experimental findings from patent US8846656B2, “Tetrahydropyrido-pyridine and tetrahydropyrido-pyrimidine compounds and use thereof as C5a receptor modulators” (Novartis AG, priority 2011, dated 2014) are described below.

The test system of assay [1] is CD11b. The experiment in a line: Human whole blood CD11b up-regulation assay. The assay is classed as cell-based. The following applies: Homo sapiens, 2 nM human C5a, CD15+ granulocytes, read-out: hCD11b IC50. On the procedure:
Whole blood was collected in sodium heparin tubes and the assay started within 2 hours of the blood draw. The blood was incubated with compounds in 1% DMSO (dimethyl sulfoxide) at room temperature for 10 minutes with gentle rocking. 2 nM of human C5a was then added for 15 minutes at room temperature with gentle rocking. Following the C5a incubation period cells were washed once with cold FACS (fluorescence-activated cell sorting) buffer (phosphate buffered saline+0.5% bovine serum albumin) FITC (fluorescein isothiocyanate) mouse anti-human CD15 and PE-Cy5 (phycoerythrin-cyanine 5) mouse anti-human CD11b antibodies (Becton Dickinson) were gently mixed with the cells and allowed to incubate for 30 minutes on ice protected from the light. Cells were then washed three times with cold FACS buffer. Red blood cells (RBC) were lysed by incubating with BD FACS lysis buffer (Becton Dickinson) for 10 minutes at room temperature. Cells were pelleted and the lysing procedure was repeated until all RBCs were lysed. The remaining leukocytes were resuspended in BD lysis buffer. Samples were acquired on the LSR^11 flow cytometer and 10,000 events of the CD15+ granulocyte population were collected. The CD11b median fluorescence intensity of the CD 15+ cell population was evaluated using FACSDiva software (Becton Dickinson).

The target of assay [2] is human C5aR (Homo sapiens (Human), UniProt P21730). The experiment in a line: FLIPR assay: inhibition of C5a-mediated calcium mobilization. The assay is classed as cell-based. The following applies: stable cell line over expressing human C5aR & Gα15, human C5a at EC50 (0.1-0.25 nM). Summed up: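 Stable cell line overexpressing human C5aR with Gα15, measured on FLIPR Tetra. Cells loaded 1 h at 37° C with calcium 5 dye and 2.5 mM probenecid in HBSS/20 mM HEPES/0.1% BSA. Compounds preincubated 30 minutes at room temperature in 1% DMSO before C5a.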
human C5aR, sequence (P21730 whole entry): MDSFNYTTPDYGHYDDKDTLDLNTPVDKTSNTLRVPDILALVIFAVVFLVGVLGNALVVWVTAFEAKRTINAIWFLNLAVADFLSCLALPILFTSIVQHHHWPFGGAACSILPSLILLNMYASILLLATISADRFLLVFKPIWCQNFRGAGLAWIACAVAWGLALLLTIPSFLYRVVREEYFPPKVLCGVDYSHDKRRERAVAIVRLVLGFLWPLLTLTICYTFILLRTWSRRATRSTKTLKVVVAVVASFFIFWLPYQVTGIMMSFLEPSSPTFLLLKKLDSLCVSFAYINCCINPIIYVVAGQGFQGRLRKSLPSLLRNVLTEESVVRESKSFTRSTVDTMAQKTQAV

On to `CO[C@H]1CCN(c2nc(-c3cccc4[nH]cc(C)c34)nc3c2CN(c2cc(C(C)C)ccc2C)CC3)[C@H](C)C1` [Example 17-P, 6-(5-isopropyl-2-methylphenyl)-4-((2R,4S)-4-methoxy-2-methylpiperidin-1-yl)-2-(3-methyl-1H-indol-4-yl)-5,6,7,8-tetrahydropyrido[4,3-d]pyrimidine], for which the values for the half-maximal inhibitory concentration (IC50) in assay [1] and in assay [2] were 70 nM and 13 nM, respectively.
Taken in the same sequence, the figures for `Cc1ccccc1N1CCc2nc(-c3c(C)cccc3C)nc(N(C)C)c2C1` [Example 17-T, 2-(2,6-dimethylphenyl)-N,N-dimethyl-6-(o-tolyl)-5,6,7,8-tetrahydropyrido[4,3-d]pyrimidin-4-amine] were 451 nM and 54 nM.
On to `CO[C@H]1CCN(c2nc(-c3c(C)cccc3C)nc3c2CN(c2cc(C(F)(F)F)ccc2C)CC3)CC1(C)C` [Example 19-AB, (S)-2-(2,6-dimethylphenyl)-4-(4-methoxy-3,3-dimethylpiperidin-1-yl)-6-(2-methyl-5-(trifluoromethyl)phenyl)-5,6,7,8-tetrahydropyrido[4,3-d]pyrimidine], for which the concentration for half-maximal inhibition (IC50) in assay [1] was found to be 26 nM; in assay [2], 17 nM.
The like results for `CO[C@H]1CCN(c2nc(-c3c(C(C)C)ccc4[nH]ncc34)nc3c2CN(c2cc(C4(C)COC4)ccc2C)CC3)CC1(C)C` [Example 19-AC, (S)-2-(5-isopropyl-1H-indazol-4-yl)-4-(4-methoxy-3,3-dimethylpiperidin-1-yl)-6-(2-methyl-5-(3-methyloxetan-3-yl)phenyl)-5,6,7,8-tetrahydropyrido[4,3-d]pyrimidine] were, in that order, 50 nM and 4 nM.
The like results for `CO[C@H]1CCN(c2nc(-c3c(C)cccc3C)nc3c2CN(c2cc(C(C)C)ccc2C)CC3)CC1(C)C` [Example 19-AD, (S)-2-(2,6-dimethylphenyl)-6-(5-isopropyl-2-methylphenyl)-4-(4-methoxy-3,3-dimethylpiperidin-1-yl)-5,6,7,8-tetrahydropyrido[4,3-d]pyrimidine] were, in that order, 26 nM and 2 nM.
The like results for `COc1ccc(C)c(N2CCc3nc(-c4c(C(C)C)ccc5[nH]ncc45)nc(N4CC[C@H](OC)C(C)(C)C4)c3C2)c1` [Example 19-AE, (S)-2-(5-isopropyl-1H-indazol-4-yl)-6-(5-methoxy-2-methylphenyl)-4-(4-methoxy-3,3-dimethylpiperidin-1-yl)-5,6,7,8-tetrahydropyrido[4,3-d]pyrimidine] were, in that order, 22 nM and 4 nM.
In the case of `CO[C@@H]1CCN(c2nc(-c3c(C)ccc4[nH]nc(C)c34)nc3c2CN(c2cc(C(C)C)ccc2C)CC3)C[C@H]1C` [Example 19-AF], the IC50 in assay [1] was 6 nM; in assay [2], 1 nM.
`CO[C@@H]1CCN(c2nc(-c3c(C)cccc3Cl)nc3c2CN(c2cc(C(C)C)ccc2C)CC3)C[C@H]1C` [Example 19-AH, 2-(2-chloro-6-methylphenyl)-6-(5-isopropyl-2-methylphenyl)-4-((3R,4R)-4-methoxy-3-methylpiperidin-1-yl)-5,6,7,8-tetrahydropyrido[4,3-d]pyrimidine]: the IC50 in assay [1] worked out at 17 nM; in assay [2] it was 4 nM.
The like results for `CO[C@H]1CCN(c2nc(-c3c(C)ccc4[nH]nc(C)c34)nc3c2CN(c2cc(C(C)C)ccc2C)CC3)CC1(C)C` [Example 19-AI, (S)-2-(3,5-dimethyl-1H-indazol-4-yl)-6-(5-isopropyl-2-methylphenyl)-4-(4-methoxy-3,3-dimethylpiperidin-1-yl)-5,6,7,8-tetrahydropyrido[4,3-d]pyrimidine] were, in that order, 7 nM and 2 nM.
In the case of `CO[C@@H]1CCN(c2nc(-c3c(C)cccc3C#N)nc3c2CN(c2cc(C(C)C)ccc2C)CC3)C[C@H]1C` [Example 19-AK, 2-(6-(5-isopropyl-2-methylphenyl)-4-((3R,4R)-4-methoxy-3-methylpiperidin-1-yl)-5,6,7,8-tetrahyropyrido[4,3-d]pyrimidin-2-yl)-3-methylbenzonitrile], the half-maximal inhibitory concentration (IC50) was determined as 30 nM in assay [1] and 31 nM in assay [2].
The like results for `CO[C@@H]1CCN(c2nc(-c3c(C)cccc3C)nc3c2CN(c2cc(C(F)(F)F)ccc2C)CC3)CC1(C)C` [Example 21-AB, (R)-2-(2,6-dimethylphenyl)-4-(4-methoxy-3,3-dimethylpiperidin-1-yl)-6-(2-methyl-5-(trifluoromethyl)phenyl)-5,6,7,8-tetrahydropyrido[4,3-d]pyrimidine] were, in that order, 11 nM and 4 nM.
The like results for `CO[C@@H]1CCN(c2nc(-c3c(C)cc(C)cc3C)nc3c2CN(c2cc(C(C)C)ccc2C)CC3)CC1(C)C` [Example 21-AE, (R)-6-(5-isopropyl-2-methylphenyl)-2-mesityl-4-(4-methoxy-3,3-dimethylpiperidin-1-yl)-5,6,7,8-tetrahydropyrido[4,3-d]pyrimidine] were, in that order, 93 nM and 9 nM.
Taken in the same sequence, the figures for `CO[C@H]1CCN(c2nc(-c3ccc(F)c4[nH]cc(C)c34)nc3c2CN(c2cc(C(C)C)ccc2C)CC3)CC1(C)C` [Example 21-AF, (S)-2-(7-fluoro-3-methyl-1H-indol-4-yl)-6-(5-isopropyl-2-methylphenyl)-4-(4-methoxy-3,3-dimethylpiperidin-1-yl)-5,6,7,8-tetrahydropyrido[4,3-d]pyrimidine] were 28 nM and 4 nM.
As for `CO[C@@H]1CCN(c2nc(-c3c(C)ccc4[nH]nc(C)c34)nc3c2CN(c2cc(Cl)ccc2C)CC3)[C@H](C)C1` [Example 21-AG, 6-(5-chloro-2-methylphenyl)-2-(3,5-dimethyl-1H-indazol-4-yl)-4-((2R,4R)-4-methoxy-2-methylpiperidin-1-yl)-5,6,7,8-tetrahydropyrido[4,3-d]pyrimidine], the 50% inhibitory concentration (IC50) in assay [1] came out at 22 nM; in assay [2], 1 nM.
The like results for `CO[C@@H]1CCN(c2nc(-c3c(C)ccc4[nH]nc(C)c34)nc3c2CN(c2cc(C(F)(F)F)ccc2C)CC3)[C@H](C)C1` [Example 21-AH, 2-(3,5-dimethyl-1H-indazol-4-yl)-4-((2R,4R)-4-methoxy-2-methylpiperidin-1-yl)-6-(2-methyl-5-(trifluoromethyl)phenyl)-5,6,7,8-tetrahydropyrido[4,3-d]pyrimidine] were, in that order, 6 nM and 1 nM.
Taken in the same sequence, the figures for `CO[C@@H]1CCN(c2nc(-c3c(C)ccc4[nH]nc(C)c34)nc3c2CN(c2cc(C(C)C)ccc2C)CC3)CC1(C)C` [Example 21-AI, (R)-2-(3,5-dimethyl-1H-indazol-4-yl)-6-(5-isopropyl-2-methylphenyl)-4-(4-methoxy-3,3-dimethylpiperidin-1-yl)-5,6,7,8-tetrahydropyrido[4,3-d]pyrimidine] were 8 nM and 1 nM.
Taken in the same sequence, the figures for `CO[C@@H]1CCN(c2nc(-c3c(C)ccc4[nH]nc(C)c34)nc3c2CN(c2cc(C(F)(F)F)ccc2C)CC3)CC1(C)C` [Example 21-AJ, (R)-2-(3,5-dimethyl-1H-indazol-4-yl)-4-(4-methoxy-3,3-dimethylpiperidin-1-yl)-6-(2-methyl-5-(trifluoromethyl)phenyl)-5,6,7,8-tetrahydropyrido[4,3-d]pyrimidine] were 15 nM and 6 nM.
For the compound `CO[C@@H]1CCN(c2nc(-c3c(C)cccc3C)nc3c2CN(c2cc(C(F)(F)F)ccc2C)CC3)[C@H](C)C1` [Example 21-AK, 2-(2,6-dimethylphenyl)-4-((2R,4R)-4-methoxy-2-methylpiperidin-1-yl)-6-(2-methyl-5-(trifluoromethyl)phenyl)-5,6,7,8-tetrahydropyrido[4,3-d]pyrimidine], the IC50 in assay [1] was found to be 51 nM; in assay [2], 5 nM.
Taken in the same sequence, the figures for `CCO[C@@H]1CCN(c2nc(-c3c(C)ccc4[nH]nc(C)c34)nc3c2CN(c2cc(C(C)C)ccc2C)CC3)[C@H](C)C1` [Example 21-AL, 2-(3,5-dimethyl-1H-indazol-4-yl)-4-((2R,4R)-4-ethoxy-2-methylpiperidin-1-yl)-6-(5-isopropyl-2-methylphenyl)-5,6,7,8-tetrahydropyrido[4,3-d]pyrimidine] were 19 nM and 1 nM.
For the compound `Cc1ccc(C(C)C)cc1N1CCc2nc(-c3c(C)ccc4[nH]nc(C)c34)nc(N3CCCC[C@H]3C)c2C1` [Example 21-AM, (R)-2-(3,5-dimethyl-1H-indazol-4-yl)-6-(5-isopropyl-2-methylphenyl)-4-(2-methylpiperidin-1-yl)-5,6,7,8-tetrahydropyrido[4,3-d]pyrimidine], the IC50 in assay [1] was 7 nM; in assay [2], 1 nM.
The like results for `CO[C@@H]1CCN(c2nc(-c3c(C)cccc3C)nc3c2CN(c2cc(C(C)C)ccc2C)CC3)[C@H](C)C1` [Example 21-D, 2-(2,6-Dimethylphenyl)-6-(5-isopropyl-2-methylphenyl)-4-((2R,4R)-4-methoxy-2-methylpiperidin-1-yl)-5,6,7,8-tetrahydropyrido[4,3-d]pyrimidine] were, in that order, 7 nM and 0.5 nM.

A word on the IC50: it is the point on the concentration scale where inhibition reaches its midpoint.
